Assay results as given in article PMC9516332 (Frontiers in Oncology, 2022).
Where two headings read alike, the source gives them in different places.

Tests used:
[1] = target: panel of 255 wild-type kinases (Homo sapiens, UniProt P31749); experiment: Kinase panel profiling at 1 µmol/L (MSA or IMAP), percentage inhibition; assay type: biochemical; conditions: AKT1 kinase assay; 1 µmol/L single concentration; read-out: %-inhibition AKT1
[2] = target: panel of 255 wild-type kinases (Homo sapiens, UniProt P08581); experiment: as above; assay type: biochemical; conditions: MET; 1 µmol/L single concentration
[3] = target: T1, panel of 255 wild-type kinases (Homo sapiens, UniProt Q96PF2); experiment: as above; assay type: biochemical; conditions: kinase TSSK2; 1 µmol/L single concentration; read-out: %-inhibition at 1 µmol/L, TSSK2
T1 sequence (Q96PF2 1-358): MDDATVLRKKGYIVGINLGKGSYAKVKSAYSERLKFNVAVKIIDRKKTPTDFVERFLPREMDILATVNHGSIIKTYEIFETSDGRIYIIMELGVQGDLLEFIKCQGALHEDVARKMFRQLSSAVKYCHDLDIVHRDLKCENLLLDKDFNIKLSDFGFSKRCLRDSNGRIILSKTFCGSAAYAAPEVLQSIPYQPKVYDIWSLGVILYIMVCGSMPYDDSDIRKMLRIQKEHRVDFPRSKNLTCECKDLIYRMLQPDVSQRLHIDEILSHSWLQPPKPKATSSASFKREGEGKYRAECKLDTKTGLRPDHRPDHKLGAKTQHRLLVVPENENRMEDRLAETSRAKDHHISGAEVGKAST

[4] = target: panel of 255 wild-type kinases (Homo sapiens, UniProt Q9Y463); experiment: as above; assay type: biochemical; conditions: kinase DYRK1B; 1 µmol/L single concentration; read-out: %-inhibition at 1 µmol/L, DYRK1B
134 cancer cell lines = experiment: Cell viability assay (ATPlite, 72 hours), IC50 on cancer cell line panel

inhibition at 1 µM [1]: -12%
inhibition at 1 µM [2]: 5.27%
inhibition at 1 µM [3]: 8%
inhibition at 1 µM [4]: -12%
IC50 (134 cancer cell lines; HEC-6, read-out: IC50 in cell proliferation assay, HEC-6 cell line (EGFR p.A289V)): 16.9 µM
IC50 (134 cancer cell lines; Homo sapiens, 769-P, read-out: IC50 in cell proliferation assay, cell line 769-P): 3.15 µM
IC50 (134 cancer cell lines; Homo sapiens, 786-0, read-out: IC50 in cell proliferation assay, cell line 786-O): 3.96 µM
IC50 (134 cancer cell lines; Homo sapiens, A 172, read-out: IC50 in cell proliferation assay, cell line A-172): 0.758 µM
IC50 (134 cancer cell lines; Homo sapiens, A204, read-out: IC50 in cell proliferation assay, cell line A-204): 0.679 µM
IC50 (134 cancer cell lines; Homo sapiens, A498, read-out: IC50 in cell proliferation assay, cell line A-498): 8.94 µM
IC50 (134 cancer cell lines; Homo sapiens, A549, read-out: IC50 in cell proliferation assay, cell line A-549): 8.17 µM
IC50 (134 cancer cell lines; Homo sapiens, A704, read-out: IC50 in cell proliferation assay, cell line A-704): 2.49 µM
IC50 (134 cancer cell lines; Homo sapiens, A-375, read-out: IC50 in cell proliferation assay, cell line A-375 (BRAF p.V600E)): 12.1 µM
IC50 (134 cancer cell lines; Homo sapiens, A-427, read-out: IC50 in cell proliferation assay, cell line A-427): 1.1 µM
IC50 (134 cancer cell lines; Homo sapiens, ACHN, read-out: IC50 in cell proliferation assay, cell line ACHN): 2.08 µM
IC50 (134 cancer cell lines; Homo sapiens, AN3-CA, read-out: IC50 in cell proliferation assay, cell line AN3-CA (FGFR2 p.N549K)): 0.9 µM
IC50 (134 cancer cell lines; Homo sapiens, ASPC1, read-out: IC50 in cell proliferation assay, cell line AsPC-1): 25.9 µM
IC50 (134 cancer cell lines; Homo sapiens, AU565, read-out: IC50 in cell proliferation assay, cell line AU565 (ERBB2 amplification)): 8.92 µM
IC50 (134 cancer cell lines; Homo sapiens, BT-20, read-out: IC50 in cell proliferation assay, cell line BT-20): 12.6 µM
IC50 (134 cancer cell lines; Homo sapiens, BT-474, read-out: IC50 in cell proliferation assay, cell line BT-474 (ERBB2 amplification)): > 31.6 µM
IC50 (134 cancer cell lines; Homo sapiens, BT-549, read-out: IC50 in cell proliferation assay, cell line BT-549): 1.93 µM
IC50 (134 cancer cell lines; Homo sapiens, BXPC-3, read-out: IC50 in cell proliferation assay, cell line BxPC-3): 3.46 µM
IC50 (134 cancer cell lines; Homo sapiens, C-33-A, read-out: IC50 in cell proliferation assay, cell line C-33 A): 0.981 µM
IC50 (134 cancer cell lines; Homo sapiens, CAL-27, read-out: IC50 in cell proliferation assay, cell line CAL-27): 1.95 µM
IC50 (134 cancer cell lines; Homo sapiens, CCF-STTG1, read-out: IC50 in cell proliferation assay, cell line CCF-STTG1): 5.77 µM
IC50 (134 cancer cell lines; Homo sapiens, CCRF-CEM, read-out: IC50 in cell proliferation assay, cell line CCRF-CEM): 13.3 µM
IC50 (134 cancer cell lines; Homo sapiens, COLO 205, read-out: IC50 in cell proliferation assay, cell line COLO 205 (BRAF p.V600E)): 12.9 µM
IC50 (134 cancer cell lines; Homo sapiens, COLO-829, read-out: IC50 in cell proliferation assay, cell line COLO 829 (BRAF p.V600E)): 24.7 µM
IC50 (134 cancer cell lines; Homo sapiens, DLD-1, read-out: IC50 in cell proliferation assay, cell line DLD-1): 9.98 µM
IC50 (134 cancer cell lines; Homo sapiens, DU-4475, read-out: IC50 in cell proliferation assay, cell line DU4475 (BRAF p.V600E)): 11.8 µM
IC50 (134 cancer cell lines; Homo sapiens, Daoy, read-out: IC50 in cell proliferation assay, cell line Daoy): 10.1 µM
IC50 (134 cancer cell lines; Homo sapiens, DoTc2-4510, read-out: IC50 in cell proliferation assay, cell line DoTc2 4510): 3.5 µM
IC50 (134 cancer cell lines; Homo sapiens, EOL1, read-out: IC50 in cell proliferation assay, cell line EoL-1 (FIP1L1-PDGFRA)): 0.016 µM
IC50 (134 cancer cell lines; Homo sapiens, FaDu, read-out: IC50 in cell proliferation assay, cell line FaDu): 3.65 µM
IC50 (134 cancer cell lines; Homo sapiens, G-361, read-out: IC50 in cell proliferation assay, cell line G-361 (BRAF p.V600E)): 17.6 µM
IC50 (134 cancer cell lines; Homo sapiens, HCC827, read-out: IC50 in cell proliferation assay, cell line HCC827 (EGFR exon19del)): 3.01 µM
IC50 (134 cancer cell lines; Homo sapiens, HCC4006, read-out: IC50 in cell proliferation assay, cell line HCC4006 (EGFR exon19del)): 5.93 µM
IC50 (134 cancer cell lines; Homo sapiens, HCT-15, read-out: IC50 in cell proliferation assay, cell line HCT 15): 5.73 µM
IC50 (134 cancer cell lines; Homo sapiens, HCT-116, read-out: IC50 in cell proliferation assay, cell line HCT 116): 10.3 µM
IC50 (134 cancer cell lines; Homo sapiens, HEC-1, read-out: IC50 in cell proliferation assay, HEC-1 cell line): 2.32 µM
IC50 (134 cancer cell lines; Homo sapiens, HEC-1B, read-out: IC50 in cell proliferation assay, HEC-1-B cell line (EGFR p.A864V)): 0.608 µM
IC50 (134 cancer cell lines; Homo sapiens, HL-60, read-out: IC50 in cell proliferation assay, HL-60 cell line): 25.2 µM
IC50 (134 cancer cell lines; Homo sapiens, HT, read-out: IC50 in cell proliferation assay, HT cell line): > 31.6 µM
IC50 (134 cancer cell lines; Homo sapiens, HT-1080, read-out: IC50 in cell proliferation assay, HT-1080 cell line): 8.1 µM
IC50 (134 cancer cell lines; Homo sapiens, Hs746T, read-out: IC50 in cell proliferation assay, Hs 746.T cell line (MET exon14skip + amplification)): 9.64 µM
IC50 (134 cancer cell lines; Homo sapiens, Hs-578T, read-out: IC50 in cell proliferation assay, Hs 578T cell line): 1.15 µM
IC50 (134 cancer cell lines; Homo sapiens, HuTu80, read-out: IC50 in cell proliferation assay, HuTu 80 cell line): 0.864 µM
IC50 (134 cancer cell lines; Homo sapiens, J82, read-out: IC50 in cell proliferation assay, J82 cell line): 1.74 µM
IC50 (134 cancer cell lines; Homo sapiens, Jurkat E6.1, read-out: IC50 in cell proliferation assay, Jurkat E6.1 cell line): 11.4 µM
IC50 (134 cancer cell lines; Homo sapiens, K562, read-out: IC50 in cell proliferation assay, K-562 cell line): 5.58 µM
IC50 (134 cancer cell lines; Homo sapiens, KATO III, read-out: IC50 in cell proliferation assay, KATO III cell line (FGFR2 amplification)): 0.273 µM
IC50 (134 cancer cell lines; Homo sapiens, KG-1, read-out: IC50 in cell proliferation assay, KG-1 cell line (FGFR1OP2-FGFR1)): 0.131 µM
IC50 (134 cancer cell lines; Homo sapiens, KLE, read-out: IC50 in cell proliferation assay, KLE cell line): 1.82 µM
IC50 (134 cancer cell lines; Homo sapiens, KMS-11, read-out: IC50 in cell proliferation assay, KMS-11 cell line (FGFR3 p.Y373C)): 0.394 µM
IC50 (134 cancer cell lines; Homo sapiens, KU812, read-out: IC50 in cell proliferation assay, Ku812 cell line): 3.74 µM
IC50 (134 cancer cell lines; Homo sapiens, Kasumi 1, read-out: IC50 in cell proliferation assay, Kasumi-1 cell line (KIT p.N822K)): 0.184 µM
IC50 (134 cancer cell lines; Homo sapiens, LC-2-ad, read-out: IC50 in cell proliferation assay, LC-2/ad cell line (CCDC6-RET)): 0.054 µM
IC50 (134 cancer cell lines; Homo sapiens, LNCaP-Clone-FGC, read-out: IC50 in cell proliferation assay, LNCaP clone FGC cell line): > 31.6 µM
IC50 (134 cancer cell lines; Homo sapiens, LS174T, read-out: IC50 in cell proliferation assay, LS174T cell line): 2.29 µM
IC50 (134 cancer cell lines; Homo sapiens, LS-411N, read-out: IC50 in cell proliferation assay, LS411N cell line (BRAF p.V600E)): 25.6 µM
IC50 (134 cancer cell lines; Homo sapiens, LoVo, read-out: IC50 in cell proliferation assay, LoVo cell line): 1.52 µM
IC50 (134 cancer cell lines; Homo sapiens, MCF7, read-out: IC50 in cell proliferation assay, MCF-7 cell line): > 31.6 µM
IC50 (134 cancer cell lines; Homo sapiens, MDA-MB-231, read-out: IC50 in cell proliferation assay, MDA-MB-231 cell line): 0.555 µM
IC50 (134 cancer cell lines; Homo sapiens, MDA-MB-453, read-out: IC50 in cell proliferation assay, MDA-MB-453 cell line): > 31.6 µM
IC50 (134 cancer cell lines; Homo sapiens, MDA-MB-468, read-out: IC50 in cell proliferation assay, MDA-MB-468 cell line): 8.52 µM
IC50 (134 cancer cell lines; Homo sapiens, MG-63, read-out: IC50 in cell proliferation assay, MG-63 cell line): 1.88 µM
IC50 (134 cancer cell lines; Homo sapiens, MIA PaCa-2, read-out: IC50 in cell proliferation assay, MIA PaCa-2 cell line): 1.56 µM
IC50 (134 cancer cell lines; Homo sapiens, MKN-45, read-out: IC50 in cell proliferation assay, MKN45 cell line (MET amplification)): > 31.6 µM
IC50 (134 cancer cell lines; Homo sapiens, MOLM-13, read-out: IC50 in cell proliferation assay, MOLM-13 cell line (FLT3 ITD)): 0.033 µM
Compound: CO[C@]1(C(=O)N[C@@H](C)c2ccc(-n3cc(F)cn3)nc2)CC[C@H](c2nc(C)cc(Nc3cc(C)[nH]n3)n2)CC1 [pralsetinib]
